Drawing on patent EP4467141A1, “PYRAZOLO-QUINOLINES AS SELECTIVE INHIBITORS OF GENOTOXIC STRESS-INDUCED IKK/NF- KB PATHWAYS FOR CANCER THERAPY” (Max-Delbrück-Centrum für Molekulare Medizin in der …, priority 2023, dated 2024), this text covers inhibition for two compounds.

As usually defined, the inhibition is the relative decrease from the control value, in per cent.

What all share (assay): Kinase panel study
Format in all cases: biochemical
What all share (conditions): read-out: Percentage of inhibition; for inhibition at 1 µM: 1000nM; for inhibition at 10 µM: 10000nM

One experiment addresses T1, CSNK1G2 (CK1 gamma 2) (Homo sapiens, UniProt P78368).
T1 construct: purchased Thermo Fisher Scientific
A digest of the protocol: (§1)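 Compounds were tested in vitro against the kinase panel by a service lab. Assays followed standard ZLyte or Adapta protocols. Activity was recorded as % inhibition at 10 µM or 1 µM, with IC50 values where determined.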

The target of another experiment is T2, MET (cMet) (Homo sapiens, UniProt P08581).
T2 construct: purchased Thermo Fisher Scientific
T2 sequence (P08581 25-1390): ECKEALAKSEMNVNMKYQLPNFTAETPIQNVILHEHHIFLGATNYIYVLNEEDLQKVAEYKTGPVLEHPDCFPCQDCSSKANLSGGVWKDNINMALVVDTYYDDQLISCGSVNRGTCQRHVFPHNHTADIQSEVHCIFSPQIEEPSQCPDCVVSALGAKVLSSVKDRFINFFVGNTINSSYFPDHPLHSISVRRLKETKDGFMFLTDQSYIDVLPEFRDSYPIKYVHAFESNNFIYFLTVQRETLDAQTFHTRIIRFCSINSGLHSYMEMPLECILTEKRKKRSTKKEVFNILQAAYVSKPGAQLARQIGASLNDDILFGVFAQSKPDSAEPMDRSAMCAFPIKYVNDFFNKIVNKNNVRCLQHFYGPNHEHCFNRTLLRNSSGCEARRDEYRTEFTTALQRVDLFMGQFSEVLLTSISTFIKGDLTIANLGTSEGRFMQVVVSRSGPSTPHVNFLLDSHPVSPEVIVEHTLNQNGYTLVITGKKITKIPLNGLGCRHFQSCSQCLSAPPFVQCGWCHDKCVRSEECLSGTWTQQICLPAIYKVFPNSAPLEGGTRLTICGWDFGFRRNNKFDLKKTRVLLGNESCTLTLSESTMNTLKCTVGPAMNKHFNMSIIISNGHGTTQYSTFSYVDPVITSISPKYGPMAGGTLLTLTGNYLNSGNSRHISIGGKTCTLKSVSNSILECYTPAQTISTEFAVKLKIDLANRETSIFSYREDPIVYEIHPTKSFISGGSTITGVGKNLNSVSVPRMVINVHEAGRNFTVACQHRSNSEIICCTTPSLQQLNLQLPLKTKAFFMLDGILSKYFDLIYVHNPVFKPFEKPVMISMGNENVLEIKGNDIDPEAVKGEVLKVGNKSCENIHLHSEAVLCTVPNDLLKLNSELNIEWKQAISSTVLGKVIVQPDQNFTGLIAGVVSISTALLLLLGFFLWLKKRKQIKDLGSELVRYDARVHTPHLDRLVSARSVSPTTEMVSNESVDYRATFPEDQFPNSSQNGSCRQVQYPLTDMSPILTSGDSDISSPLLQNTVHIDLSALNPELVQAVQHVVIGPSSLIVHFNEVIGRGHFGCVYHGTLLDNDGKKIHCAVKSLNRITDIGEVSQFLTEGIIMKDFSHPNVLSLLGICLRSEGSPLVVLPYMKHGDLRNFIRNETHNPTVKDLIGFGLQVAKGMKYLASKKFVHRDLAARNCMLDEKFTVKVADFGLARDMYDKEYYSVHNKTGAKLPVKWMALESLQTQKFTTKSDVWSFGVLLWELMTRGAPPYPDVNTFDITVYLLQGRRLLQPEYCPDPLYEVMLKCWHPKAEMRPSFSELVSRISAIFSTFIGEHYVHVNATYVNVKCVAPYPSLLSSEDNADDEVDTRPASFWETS
The procedure, abridged:
as §1

Another experiment deals with T3, JAK2 JH1 JH2 V617F (Homo sapiens, UniProt O60674, V617F).
T3 construct: JAK2 JH1 JH2 V617F; purchased Thermo Fisher Scientific
T3 sequence (O60674 532-1132 V617F limits assumed): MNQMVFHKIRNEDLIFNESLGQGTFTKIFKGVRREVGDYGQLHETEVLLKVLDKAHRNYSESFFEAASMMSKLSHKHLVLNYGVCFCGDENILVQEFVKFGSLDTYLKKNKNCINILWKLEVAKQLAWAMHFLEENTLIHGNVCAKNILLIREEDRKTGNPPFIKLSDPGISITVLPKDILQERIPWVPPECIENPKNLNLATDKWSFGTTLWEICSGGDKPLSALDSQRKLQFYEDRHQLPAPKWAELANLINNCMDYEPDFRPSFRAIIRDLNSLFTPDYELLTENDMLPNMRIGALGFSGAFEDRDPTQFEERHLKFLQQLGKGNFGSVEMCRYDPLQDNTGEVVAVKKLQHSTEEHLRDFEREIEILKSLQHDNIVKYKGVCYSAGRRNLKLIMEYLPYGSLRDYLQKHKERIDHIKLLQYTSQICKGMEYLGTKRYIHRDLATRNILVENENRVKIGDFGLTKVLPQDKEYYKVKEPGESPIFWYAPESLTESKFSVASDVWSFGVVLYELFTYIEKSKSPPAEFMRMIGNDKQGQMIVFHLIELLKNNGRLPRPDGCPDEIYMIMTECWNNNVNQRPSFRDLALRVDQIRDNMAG
The procedure, abridged:
as §1

Another experiment has as its target T4, EPHA8 (Homo sapiens, UniProt P29322).
T4 construct: purchased Thermo Fisher Scientific
T4 sequence (P29322 28-1005): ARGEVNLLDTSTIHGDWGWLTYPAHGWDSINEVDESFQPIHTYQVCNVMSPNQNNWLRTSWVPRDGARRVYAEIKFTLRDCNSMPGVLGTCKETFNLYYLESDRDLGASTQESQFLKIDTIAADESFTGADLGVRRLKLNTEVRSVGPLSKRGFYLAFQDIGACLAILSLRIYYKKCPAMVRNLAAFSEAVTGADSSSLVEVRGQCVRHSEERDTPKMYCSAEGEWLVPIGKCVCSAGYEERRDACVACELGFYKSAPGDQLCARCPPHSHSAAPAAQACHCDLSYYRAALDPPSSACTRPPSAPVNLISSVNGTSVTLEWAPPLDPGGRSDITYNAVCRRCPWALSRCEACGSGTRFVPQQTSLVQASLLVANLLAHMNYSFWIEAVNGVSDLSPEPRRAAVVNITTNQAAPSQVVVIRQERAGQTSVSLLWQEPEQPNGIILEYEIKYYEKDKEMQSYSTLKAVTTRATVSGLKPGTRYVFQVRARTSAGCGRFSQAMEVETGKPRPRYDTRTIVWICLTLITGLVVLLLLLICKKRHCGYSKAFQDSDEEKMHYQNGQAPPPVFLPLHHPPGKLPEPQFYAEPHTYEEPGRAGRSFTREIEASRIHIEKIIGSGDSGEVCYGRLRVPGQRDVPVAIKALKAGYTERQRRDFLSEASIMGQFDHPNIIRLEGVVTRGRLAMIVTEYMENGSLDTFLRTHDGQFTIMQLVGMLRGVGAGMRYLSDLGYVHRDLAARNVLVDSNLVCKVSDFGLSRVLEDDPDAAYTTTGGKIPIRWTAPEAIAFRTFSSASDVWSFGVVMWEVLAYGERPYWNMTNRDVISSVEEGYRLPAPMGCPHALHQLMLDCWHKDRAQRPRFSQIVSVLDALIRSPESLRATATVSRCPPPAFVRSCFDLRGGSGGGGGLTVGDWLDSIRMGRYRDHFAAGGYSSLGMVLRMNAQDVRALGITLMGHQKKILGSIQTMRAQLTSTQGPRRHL
The procedure, abridged: as §1

The next experiment deals with T5, MERTK (cMER) (Homo sapiens, UniProt Q12866).
T5 construct: purchased Thermo Fisher Scientific
T5 sequence (Q12866 21-999): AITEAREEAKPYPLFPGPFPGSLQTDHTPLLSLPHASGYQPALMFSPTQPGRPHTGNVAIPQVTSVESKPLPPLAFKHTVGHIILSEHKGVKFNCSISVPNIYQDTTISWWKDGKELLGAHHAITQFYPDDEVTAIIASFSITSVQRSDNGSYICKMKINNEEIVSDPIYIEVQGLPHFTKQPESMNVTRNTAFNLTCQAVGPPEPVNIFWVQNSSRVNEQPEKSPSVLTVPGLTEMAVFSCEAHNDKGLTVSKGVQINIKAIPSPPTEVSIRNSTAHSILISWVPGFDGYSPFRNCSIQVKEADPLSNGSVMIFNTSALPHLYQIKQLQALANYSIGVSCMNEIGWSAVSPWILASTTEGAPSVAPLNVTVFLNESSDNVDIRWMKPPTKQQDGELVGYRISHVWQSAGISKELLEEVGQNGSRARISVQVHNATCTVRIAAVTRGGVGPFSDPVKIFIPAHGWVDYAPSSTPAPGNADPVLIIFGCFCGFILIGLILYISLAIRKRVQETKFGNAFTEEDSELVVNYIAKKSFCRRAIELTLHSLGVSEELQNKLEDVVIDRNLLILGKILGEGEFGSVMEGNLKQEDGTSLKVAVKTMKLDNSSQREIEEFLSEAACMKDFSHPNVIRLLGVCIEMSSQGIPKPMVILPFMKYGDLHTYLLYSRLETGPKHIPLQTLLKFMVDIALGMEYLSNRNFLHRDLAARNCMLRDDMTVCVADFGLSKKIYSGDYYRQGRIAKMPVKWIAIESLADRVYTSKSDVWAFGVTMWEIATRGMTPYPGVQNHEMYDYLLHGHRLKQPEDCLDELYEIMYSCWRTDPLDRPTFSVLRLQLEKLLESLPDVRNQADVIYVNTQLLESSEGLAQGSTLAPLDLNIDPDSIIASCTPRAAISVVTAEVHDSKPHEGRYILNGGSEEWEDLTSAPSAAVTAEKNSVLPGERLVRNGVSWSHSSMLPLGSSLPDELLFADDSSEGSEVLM
A digest of the protocol:
as §1

T1 sequence (P78368 whole entry): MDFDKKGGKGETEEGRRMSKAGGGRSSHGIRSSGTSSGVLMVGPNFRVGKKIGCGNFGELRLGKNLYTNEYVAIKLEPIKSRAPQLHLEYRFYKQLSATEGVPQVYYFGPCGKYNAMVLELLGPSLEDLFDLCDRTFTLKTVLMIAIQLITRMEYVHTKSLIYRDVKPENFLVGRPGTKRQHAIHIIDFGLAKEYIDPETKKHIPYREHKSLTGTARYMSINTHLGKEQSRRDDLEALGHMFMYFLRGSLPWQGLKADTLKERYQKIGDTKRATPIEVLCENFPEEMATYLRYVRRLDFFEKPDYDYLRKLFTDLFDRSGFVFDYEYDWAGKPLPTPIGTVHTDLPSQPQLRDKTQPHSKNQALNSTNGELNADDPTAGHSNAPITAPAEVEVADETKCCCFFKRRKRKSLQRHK

On to `COc1ccc2c(c1OC)c(=O)n1c3ccc(O)cc3c3ccnc2c31` [MW01, 5-Hydroxy-10,11-dimethoxy-9H-benzo[c]indolo[3,2,1-ij][1,5]naphthyridin-9-one], for which the inhibition at 1 µM on CSNK1G2 (CK1 gamma 2) amounted to 22%; at MET (cMet), 14%; on JAK2 JH1 JH2 V617F, 15%; on EPHA8 it was 4%; on MERTK (cMER), 54%. Also, the inhibition at 10 µM at CSNK1G2 (CK1 gamma 2) turned out to be 41%; at MET (cMet) it was 35%; on JAK2 JH1 JH2 V617F it was 29%; on EPHA8, 21%; on MERTK (cMER), 86%.
Turning to `COc1ccc2cc3c(N)nn(C(=O)c4cccc(N(C)C)c4)c3nc2c1` [MW05, (3-Amino-7-methoxypyrazolo[3,4-b]quinolin-1-yl)-[3-(dimethylamino)phenyl]methanone], the inhibition at 1 µM on CSNK1G2 (CK1 gamma 2) was 4%; on MET (cMet) it was 5%; at JAK2 JH1 JH2 V617F, 1%; at EPHA8, -1%; at MERTK (cMER) it was 4%. Also, the inhibition at 10 µM on CSNK1G2 (CK1 gamma 2) is 13%; at MET (cMet) it was -8%; at JAK2 JH1 JH2 V617F it was -28%; on EPHA8 it was -9%; on MERTK (cMER), 11%.
